Reference: PubChem BioAssay (NCI)
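Step 1: Grow cells in 96-well plates. Step 2: Expose to compound for 48 hours at 5 concentrations. Step 3: Interpolate endpoints linearly; if unreached, use highest concentration. GI50 marks 50% less growth. TGI: total growth inhibition.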

Tests used:
Assay in all cases: inhibition of tumour cell growth, NCI panel, 48 h
EKVX NSCLC = tested on: EKVX NSCLC
MCF7 breast = tested on: MCF7 breast
MALME-3M melanoma = tested on: MALME-3M melanoma
A498 renal = tested on: A498 renal
HOP-62 NSCLC = tested on: HOP-62 NSCLC
HCT-116 colon = tested on: HCT-116 colon
HCT-15 colon = tested on: HCT-15 colon
NCI-H23 lung = tested on: NCI-H23 lung
ACHN renal = tested on: ACHN renal
A549 NSCLC = tested on: A549 NSCLC
SK-MEL-5 melanoma = tested on: SK-MEL-5 melanoma
UACC-257 melanoma = tested on: UACC-257 melanoma
NCI/ADR-RES ovarian = tested on: NCI/ADR-RES ovarian
KM12 colon = tested on: KM12 colon
SK-MEL-2 melanoma = tested on: SK-MEL-2 melanoma
OVCAR-3 ovarian = tested on: OVCAR-3 ovarian
TK-10 renal = tested on: TK-10 renal
MOLT-4 leukemia = tested on: MOLT-4 leukemia
UO-31 renal = tested on: UO-31 renal
OVCAR-8 ovarian = tested on: OVCAR-8 ovarian
SNB-19 CNS = tested on: SNB-19 CNS
SK-MEL-28 melanoma = tested on: SK-MEL-28 melanoma
OVCAR-4 ovarian = tested on: OVCAR-4 ovarian
UACC-62 melanoma = tested on: UACC-62 melanoma
SN12C renal = tested on: SN12C renal
RXF 393 renal = tested on: RXF 393 renal
COLO 205 colon = tested on: COLO 205 colon
PC-3 prostate = tested on: PC-3 prostate
NCI-H226 lung = tested on: NCI-H226 lung
CCRF-CEM leukemia = tested on: CCRF-CEM leukemia
SW-620 colon = tested on: SW-620 colon
786-0 renal = tested on: 786-0 renal
OVCAR-5 ovarian = tested on: OVCAR-5 ovarian
M14 melanoma = tested on: M14 melanoma
T-47D breast = tested on: T-47D breast
HOP-92 NSCLC = tested on: HOP-92 NSCLC
MDA-MB-231 breast = tested on: MDA-MB-231 breast
K-562 leukemia = tested on: K-562 leukemia
DU-145 prostate = tested on: DU-145 prostate
HS 578T breast = tested on: HS 578T breast
NCI-H460 lung = tested on: NCI-H460 lung
IGROV1 ovarian = tested on: IGROV1 ovarian
CAKI-1 renal = tested on: CAKI-1 renal
SF-268 CNS = tested on: SF-268 CNS
RPMI-8226 leukemia = tested on: RPMI-8226 leukemia
U251 CNS = tested on: U251 CNS
SF-295 CNS = tested on: SF-295 CNS
SR leukemia = tested on: SR leukemia
HT29 colon = tested on: HT29 colon
HCC-2998 colon = tested on: HCC-2998 colon
HL-60(TB) leukemia = tested on: HL-60(TB) leukemia
SNB-75 CNS = tested on: SNB-75 CNS
LOX IMVI melanoma = tested on: LOX IMVI melanoma
BT-549 breast = tested on: BT-549 breast
MDA-MB-435 = tested on: MDA-MB-435
SF-539 CNS = tested on: SF-539 CNS
NCI-H522 lung = tested on: NCI-H522 lung

FC(F)(F)c1ccc(-c2cncn2-c2ccccc2)cc1
GI50 (EKVX NSCLC): 17.1 µM | TGI (EKVX NSCLC): 54.3 µM | GI50 (MCF7 breast): 22.7 µM | TGI (MCF7 breast): > 100 µM | GI50 (MALME-3M melanoma): 21.1 µM | TGI (MALME-3M melanoma): 43.1 µM | GI50 (A498 renal): 12.9 µM | TGI (A498 renal): 27.1 µM | GI50 (HOP-62 NSCLC): 2.72 µM | TGI (HOP-62 NSCLC): 20.7 µM | GI50 (HCT-116 colon): 1.88 µM | TGI (HCT-116 colon): 16.3 µM | GI50 (HCT-15 colon): 18.1 µM | TGI (HCT-15 colon): > 100 µM | GI50 (NCI-H23 lung): 10.4 µM | TGI (NCI-H23 lung): 34.4 µM | GI50 (ACHN renal): 3.68 µM | TGI (ACHN renal): 23 µM | GI50 (A549 NSCLC): 11.9 µM | TGI (A549 NSCLC): 27.5 µM | GI50 (SK-MEL-5 melanoma): 13 µM | TGI (SK-MEL-5 melanoma): 26.9 µM | GI50 (UACC-257 melanoma): 19.9 µM | TGI (UACC-257 melanoma): 49 µM | GI50 (NCI/ADR-RES ovarian): 7.13 µM | TGI (NCI/ADR-RES ovarian): 30.2 µM | GI50 (KM12 colon): 20.6 µM | TGI (KM12 colon): 70.8 µM | GI50 (SK-MEL-2 melanoma): 18.2 µM | TGI (SK-MEL-2 melanoma): 37.9 µM | GI50 (OVCAR-3 ovarian): 16.6 µM | TGI (OVCAR-3 ovarian): 38.9 µM | GI50 (TK-10 renal): 24.2 µM | TGI (TK-10 renal): > 100 µM | GI50 (MOLT-4 leukemia): 3.9 µM | TGI (MOLT-4 leukemia): 27.2 µM | GI50 (UO-31 renal): 4.59 µM | TGI (UO-31 renal): 21.5 µM | GI50 (OVCAR-8 ovarian): 13.6 µM | TGI (OVCAR-8 ovarian): 33.8 µM | GI50 (SNB-19 CNS): 10.4 µM | TGI (SNB-19 CNS): 38.5 µM | GI50 (SK-MEL-28 melanoma): 39.1 µM | TGI (SK-MEL-28 melanoma): > 100 µM | GI50 (OVCAR-4 ovarian): 36 µM | TGI (OVCAR-4 ovarian): > 100 µM | GI50 (UACC-62 melanoma): 11.2 µM | TGI (UACC-62 melanoma): 24.9 µM | GI50 (SN12C renal): 10.4 µM | TGI (SN12C renal): 23.5 µM | GI50 (RXF 393 renal): 16.6 µM | TGI (RXF 393 renal): 32.2 µM | GI50 (COLO 205 colon): 19.1 µM | TGI (COLO 205 colon): 47.1 µM | GI50 (PC-3 prostate): 13 µM | TGI (PC-3 prostate): 35.6 µM | GI50 (NCI-H226 lung): 10.5 µM | TGI (NCI-H226 lung): 27.8 µM | GI50 (CCRF-CEM leukemia): 2.84 µM | TGI (CCRF-CEM leukemia): 15.7 µM | GI50 (SW-620 colon): 4.03 µM | TGI (SW-620 colon): 57.1 µM | GI50 (786-0 renal): 10 µM | TGI (786-0 renal): 21.9 µM | GI50 (OVCAR-5 ovarian): 23.5 µM | TGI (OVCAR-5 ovarian): 79.4 µM | GI50 (M14 melanoma): 13 µM | TGI (M14 melanoma): 27.1 µM | GI50 (T-47D breast): 15.5 µM | TGI (T-47D breast): > 100 µM | GI50 (HOP-92 NSCLC): 2.89 µM | TGI (HOP-92 NSCLC): 18.9 µM | GI50 (MDA-MB-231 breast): 11.8 µM | TGI (MDA-MB-231 breast): 28.6 µM | GI50 (K-562 leukemia): 20.9 µM | TGI (K-562 leukemia): 77.6 µM | GI50 (DU-145 prostate): 6.28 µM | TGI (DU-145 prostate): 26.2 µM | GI50 (HS 578T breast): 16.4 µM | TGI (HS 578T breast): 47.8 µM | GI50 (NCI-H460 lung): 16.9 µM | TGI (NCI-H460 lung): > 100 µM | GI50 (IGROV1 ovarian): 12.3 µM | TGI (IGROV1 ovarian): 38.6 µM | GI50 (CAKI-1 renal): 4.71 µM | TGI (CAKI-1 renal): > 100 µM | GI50 (SF-268 CNS): 36.6 µM | TGI (SF-268 CNS): > 100 µM | GI50 (RPMI-8226 leukemia): 5.75 µM | TGI (RPMI-8226 leukemia): 27.2 µM | GI50 (U251 CNS): 6.89 µM | TGI (U251 CNS): 30.6 µM | GI50 (SF-295 CNS): 19.3 µM | TGI (SF-295 CNS): > 100 µM | GI50 (SR leukemia): 1.18 µM | TGI (SR leukemia): 7.89 µM | GI50 (HT29 colon): 21.3 µM | TGI (HT29 colon): > 100 µM | GI50 (HCC-2998 colon): 12.3 µM | TGI (HCC-2998 colon): 26.2 µM | GI50 (HL-60(TB) leukemia): 12.7 µM | TGI (HL-60(TB) leukemia): 35.6 µM | GI50 (SNB-75 CNS): 15.3 µM | TGI (SNB-75 CNS): 40.7 µM | GI50 (LOX IMVI melanoma): 5.68 µM | TGI (LOX IMVI melanoma): 23.2 µM | GI50 (BT-549 breast): 15.1 µM | TGI (BT-549 breast): 40.4 µM | GI50 (MDA-MB-435): 24.4 µM | TGI (MDA-MB-435): 88.5 µM | GI50 (SF-539 CNS): 15.6 µM | TGI (SF-539 CNS): 41.8 µM | GI50 (NCI-H522 lung): 8.54 µM | TGI (NCI-H522 lung): 25.2 µM
